Numbered stars: 1 amine (or outer) side, 2 acyl side, 3 side chain; on linkers, the order of the positions; unused ones are H or OH. Bridge positions count the residues as written; N and C are the ends. Square brackets hold non-standard residues; d marks the D form. Peptide text beside a SMILES is read from it. ξ: configuration not given here. X3 = O=C(/C=N/OCCCCCCOc1cc(C[*:2])cc(C[*:3])c1)[*:1]; X9 = NC(=O)[C@H](CS[*:1])CC(=O)[C@H](CCC(=O)O)N[*:2]; X1 = O=C(C=NOCCCCCCOc1cc(C[*:2])cc(C[*:3])c1)[*:1]; X5 = O=C(CCCCCCOc1cc(C[*:2])cc(C[*:3])c1)[*:1]; X7 = O=C(/C=N\OCc1cc(C[*:2])cc(C[*:3])c1)[*:1]; aThr = C[C@H](O)[C@H](N)C(=O)O; Thr(3ξ) = CC(O)[C@H](N)C(=O)O; Nle = CCCC[C@H](N)C(=O)O
biological target: T1, rh-integrin α4β7/LPAM-1 (Homo sapiens, UniProt P13612+P26010); test: α4β7-MadCAM Competition ELISA (Example 4); assay type: binding; conditions: IC50, Table 3 Representative compounds; inhibition of MAdCAM binding to coated α4β7
T1 sequence (P13612 34-977 limits assumed): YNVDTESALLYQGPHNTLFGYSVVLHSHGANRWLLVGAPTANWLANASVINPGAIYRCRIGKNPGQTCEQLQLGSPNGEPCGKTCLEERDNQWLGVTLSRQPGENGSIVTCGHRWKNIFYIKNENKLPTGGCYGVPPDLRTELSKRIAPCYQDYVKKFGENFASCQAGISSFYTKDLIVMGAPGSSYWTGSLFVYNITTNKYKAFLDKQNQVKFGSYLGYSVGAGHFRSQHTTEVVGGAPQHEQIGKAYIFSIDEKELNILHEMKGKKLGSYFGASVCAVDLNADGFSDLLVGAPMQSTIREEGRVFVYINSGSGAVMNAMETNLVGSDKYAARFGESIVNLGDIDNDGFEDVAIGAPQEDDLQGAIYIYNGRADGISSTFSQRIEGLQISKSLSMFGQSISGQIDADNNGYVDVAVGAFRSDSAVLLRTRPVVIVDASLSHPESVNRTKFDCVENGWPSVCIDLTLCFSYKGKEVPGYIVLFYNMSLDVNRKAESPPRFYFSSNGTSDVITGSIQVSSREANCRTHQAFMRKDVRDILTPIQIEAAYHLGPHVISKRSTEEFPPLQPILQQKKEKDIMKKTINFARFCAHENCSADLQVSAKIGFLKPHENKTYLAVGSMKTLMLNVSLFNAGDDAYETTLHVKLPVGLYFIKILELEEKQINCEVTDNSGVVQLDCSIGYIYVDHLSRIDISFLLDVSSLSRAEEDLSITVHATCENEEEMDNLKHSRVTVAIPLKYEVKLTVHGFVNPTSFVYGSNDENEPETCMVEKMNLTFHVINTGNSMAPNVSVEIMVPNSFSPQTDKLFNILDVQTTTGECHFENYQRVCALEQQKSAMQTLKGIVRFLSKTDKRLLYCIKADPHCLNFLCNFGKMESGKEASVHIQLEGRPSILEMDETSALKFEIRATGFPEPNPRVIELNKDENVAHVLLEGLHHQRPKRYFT
T1 sequence (P26010 20-723 limits assumed): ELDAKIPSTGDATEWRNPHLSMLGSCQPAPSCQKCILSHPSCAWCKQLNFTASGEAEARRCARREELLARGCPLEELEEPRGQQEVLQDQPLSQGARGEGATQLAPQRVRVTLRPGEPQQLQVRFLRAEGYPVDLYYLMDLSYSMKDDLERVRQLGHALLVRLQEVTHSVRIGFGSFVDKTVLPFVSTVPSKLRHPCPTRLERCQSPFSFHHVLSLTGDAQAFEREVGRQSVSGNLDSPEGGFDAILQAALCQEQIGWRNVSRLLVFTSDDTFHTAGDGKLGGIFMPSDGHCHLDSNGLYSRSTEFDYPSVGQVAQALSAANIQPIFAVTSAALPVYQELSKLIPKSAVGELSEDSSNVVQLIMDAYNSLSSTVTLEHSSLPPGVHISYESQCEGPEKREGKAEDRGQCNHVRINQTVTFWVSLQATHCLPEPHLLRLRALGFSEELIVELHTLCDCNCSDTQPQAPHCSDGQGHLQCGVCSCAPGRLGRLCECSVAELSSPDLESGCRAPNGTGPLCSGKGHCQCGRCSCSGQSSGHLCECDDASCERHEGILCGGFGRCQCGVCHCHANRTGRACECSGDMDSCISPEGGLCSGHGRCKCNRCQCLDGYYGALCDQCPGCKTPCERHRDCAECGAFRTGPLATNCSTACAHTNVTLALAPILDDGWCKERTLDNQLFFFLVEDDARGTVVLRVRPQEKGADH
Experimental: After washing with wash buffer, 200 μL assay buffer was added to each well and incubated for one hour at 28° C. After another wash with wash buffer, 100 μL of a MAdCAM and peptide mixture in assay buffer was added to each well and incubated for one hour at 28° C., followed by washing with wash buffer.

SMILES | IC50
CC[C@H](C)[C@@H]1NC(=O)[C@H]([C@@H](C)O)NC(=O)[C@H](CC(=O)O)NC(=O)[C@H](CO)NC(=O)[C@H](CCCNC(=N)N)NC(=O)[C@@H]2CSCc3cc(cc(c3)CSC[C@@H](C(N)=O)NC1=O)CO/N=C\C(=O)N[C@@H](C)C(=O)N2 [compound 94, TSL1- SACRSDTLC] (ACRSDTIC-NH2; linker N-2-8 via X7) | 111 µM

same assay, conditions: Table 3 Representative compounds; inhibition of MAdCAM binding to coated α4β7; read-out: IC50

SMILES | IC50
CC(C)C[C@@H]1NC(=O)[C@@H]2CCCN2C(=O)[C@@H]2CSCc3cc(cc(c3)OCCCCCCO/N=C/C(=O)N[C@@H](CCCCN)C(=O)N2)CSC[C@@H](C(N)=O)NC(=O)[C@H](CO)NC(=O)[C@@H]2CCCN2C(=O)[C@H](C(C)C)NC(=O)[C@H](C)NC1=O [compound 81, TSL6- SKCPLAVPSC] (KCPLAVPSC-NH2; linker N-2-9 via X3) | 55.9 µM
CC[C@H](C)[C@@H]1NC(=O)[C@H](CC(=O)O)NC(=O)[C@H](CCSC)NC(=O)[C@@H]2CCCN2C(=O)[C@@H](NC(=O)[C@H](CCCNC(=N)N)NC(=O)[C@H](CO)NC(C)=O)CSSC[C@@H](C(N)=O)NC(=O)[C@H](CCC(=O)O)NC(=O)CNC(=O)[C@H](C)NC1=O [compound 36] (Ac-SRCPMDIAGEC-NH2; disulfide 3-11) | 0.932 µM
CC(C)C[C@@H]1NC(=O)[C@@H]2CCCN2C(=O)[C@@H]2CSCc3cc(cc(c3)OCCCCCCO/N=C/C(=O)N[C@@H](CCCCN)C(=O)N2)CSC[C@@H](C(N)=O)NC(=O)[C@H](CCC(=O)O)NC(=O)[C@H](Cc2ccc(O)cc2)NC(=O)[C@@H]2CCCN2C(=O)[C@H](C(C)C)NC(=O)[C@H](CC(=O)O)NC1=O [compound 10] (KCPLDVPYEC-NH2; linker N-2-10 via X3) | 0.188 µM
CSCC[C@@H]1NC(=O)[C@H](CCCNC(=N)N)NC(=O)[C@@H]2CSCc3cc(cc(c3)OCCCCCCO/N=C/C(=O)N[C@@H]([C@H](C)O)C(=O)N2)CSC[C@@H](C(N)=O)NC(=O)[C@H](CC(=O)O)NC(=O)[C@H](CCC(N)=O)NC(=O)[C@H](Cc2ccccc2)NC(=O)[C@H](CC(=O)O)NC1=O [compound 106, TSL6- STCRMDFQDC] ([aThr]CRMDFQDC-NH2; linker N-2-9 via X3) | 499 µM
CC(C)C[C@@H]1NC(=O)[C@H]([C@@H](C)O)NC(=O)[C@H](CC(=O)O)NC(=O)[C@H](CO)NC(=O)[C@H](CCCNC(=N)N)NC(=O)[C@@H](N)CSSC[C@@H](C(N)=O)NC1=O [compound 8] (H-CRSDTLC-NH2; disulfide 1-7) | 0.186 µM
CC(C)C[C@@H]1NC(=O)[C@H](CO)NC(=O)[C@H](CCCNC(=N)N)NC(=O)[C@@H]2CSCC(=O)N[C@@H](CCCNC(=N)N)C(=O)N[C@@H](CSSC[C@@H](C(=O)N[C@@H](Cc3c[nH]c4ccccc34)C(=O)N[C@@H](CCC(N)=O)C(N)=O)NC(=O)[C@H](C(C)C)NC(=O)[C@@H](CC(=O)O)NC1=O)C(=O)N[C@@H](CO)C(=O)N[C@@H](CC(=O)O)C(=O)N[C@@H]([C@@H](C)O)C(=O)N[C@@H](CC(C)C)C(=O)N2 (racemic) [compound 87] | 71.3 µM
C[C@@H](O)[C@@H]1NC(=O)[C@H](Cc2ccccc2)NC(=O)[C@H](CCCCN)NC(=O)[C@H](CC(=O)O)NC(=O)[C@H](Cc2cnc[nH]2)NC(=O)[C@@H]2CSCc3cc(cc(c3)OCCCCCCO/N=C/C(=O)N[C@@H](CO)C(=O)N2)CSC[C@@H](C(N)=O)NC(=O)[C@H](CCC(=O)O)NC1=O [compound 60, TSL6- SDCHDKFTEC] (SCHDKFTEC-NH2; linker N-2-9 via X3) | 5.43 µM
CC[C@H](C)[C@@H]1NC(=O)[C@H](CCCNC(=N)N)NC(=O)CNC(=O)[C@H](Cc2ccc(O)cc2)NC(=O)[C@H](Cc2c[nH]c3ccccc23)NC(=O)[C@H](Cc2c[nH]cn2)NC(=O)[C@@H]2CSCc3cc(cc(c3)OCCCCCCO/N=C/C(=O)N[C@@H](CC(N)=O)C(=O)N2)CSC[C@@H](C(N)=O)NC1=O [compound 83, TSL6- SNCHWYGRIC] (NCHWYGRIC-NH2; linker N-2-9 via X3) | 63.8 µM
CC(C)C[C@@H]1NC(=O)[C@@H]2CCCN2C(=O)[C@@H](NC(=O)[C@H](CCCCN)NC(=O)[C@@H](N)CO)CSSC[C@@H](C(N)=O)CC(=O)[C@H](CCC(=O)O)NC(=O)[C@H](Cc2ccc(O)cc2)NC(=O)[C@@H]2CCCN2C(=O)[C@H](C(C)O)NC(=O)[C@H](CC(=O)O)NC1=O (stereo partly shown) [compound 25] (H-SKCPLD[Thr(3ξ)]PY; linker 3-C via X9) | 0.552 µM
CC(C)C[C@@H]1NC(=O)[C@H](C)NC(=O)[C@@H]2CSCc3cc(cc(c3)OCCCCCCO/N=C/C(=O)N[C@@H](CCCCN)C(=O)N2)CSC[C@@H](C(N)=O)NC(=O)[C@H](CO)NC(=O)[C@@H]2CCCN2C(=O)[C@H](C(C)C)NC(=O)[C@H](CC(=O)O)NC1=O [compound 59, TSL6- SKCALDVPSC] (KCALDVPSC-NH2; linker N-2-9 via X3) | 4.01 µM
CCCC[C@@H]1NC(=O)[C@@H]2CCCN2C(=O)[C@@H]2CSCc3cc(cc(c3)OCCCCCCC(=O)NCC(=O)N[C@@H](CCCCN)C(=O)N2)CSC[C@@H](C(N)=O)NC(=O)[C@H](CCCCN)NC(=O)[C@H](C(C)C)NC(=O)[C@H](Cc2c[nH]c3ccccc23)NC(=O)[C@H]([C@@H](C)CC)NC(=O)[C@H](CC(=O)O)NC1=O (stereo in doubt) [compound 21, TSLC7- GKCP{Nle} DIWVKC] | 0.45 µM

same assay, conditions: competition ELISA, 4 μg/mL α4β7 coated, MAdCAM and peptide mixture, 28° C.; read-out: IC50

SMILES | IC50
CC(C)C[C@@H]1NC(=O)[C@@H]2CCCN2C(=O)[C@@H]2CSCc3cc(cc(c3)OCCCCCCON=CC(=O)N[C@@H](CCCCN)C(=O)N2)CSC[C@@H](C(=O)O)NC(=O)[C@H](CO)NC(=O)[C@@H]2CCCN2C(=O)[C@H](C)NC(=O)[C@H](CC(=O)O)NC1=O [SEQ ID NO: 57] (KCPLDAPSC-OH; linker N-2-9 via X1) | 1.74 µM
CCCC[C@@H]1NC(=O)[C@H](CO)NC(=O)[C@@H]2CSSC[C@@H](C(=O)N[C@@H](Cc3c[nH]c4ccccc34)C(=O)N[C@@H](CCC(N)=O)C(N)=O)NC(=O)[C@H](C(C)C)NC(=O)[C@H](CC(=O)O)NC(=O)[C@H](CC(C)C)NC(=O)[C@H](CO)NC(=O)[C@H](CCCNC(=N)N)NC(=O)[C@H](CSCC(=O)N[C@@H](CCCNC(=N)N)C(=O)N2)NC(=O)[C@H]([C@@H](C)CC)NC(=O)[C@H](CC(=O)O)NC1=O [SEQ ID NO: 94] ({CH2CO}-RCS[Nle]DICRSLDVCWQ-NH2; disulfide 2-13; thioether N-7) | 19.7 µM
CCCC[C@@H]1NC(=O)[C@H](CO)NC(=O)[C@H](CCCNC(=N)N)NC(=O)[C@@H]2CSCC(=O)N[C@@H](CCCNC(=N)N)C(=O)N[C@@H](CSSC[C@@H](C(=O)N[C@@H](Cc3c[nH]c4ccccc34)C(=O)N[C@@H](CCC(N)=O)C(N)=O)NC(=O)[C@H]([C@@H](C)CC)NC(=O)[C@H](CC(=O)O)NC1=O)C(=O)N[C@@H](CO)C(=O)N[C@@H](CC(=O)O)C(=O)N[C@@H]([C@@H](C)O)C(=O)N[C@@H](CC(C)C)C(=O)N2 [SEQ ID NO: 96] ({CH2CO}-RCSDTLCRS[Nle]DICWQ-NH2; disulfide 2-13; thioether N-7) | 15.9 µM
CCCC[C@@H]1NC(=O)[C@@H]2CCCN2C(=O)[C@@H]2CSCc3cc(cc(c3)OCCCCCCC(=O)NCC(=O)N[C@@H](C)C(=O)N2)CSC[C@@H](C(=O)O)NC(=O)[C@H](CCC(=O)O)NC(=O)[C@H](CCC(N)=O)NC(=O)[C@H](Cc2c[nH]c3ccccc23)NC(=O)[C@H](C(C)C)NC(=O)[C@H](CC(=O)O)NC1=O [SEQ ID NO: 122] (GACP[Nle]DVWQEC-OH; linker N-3-11 via X5; C-terminus assumed) | 0.74 µM
